{"source": "patent US5104859A", "about": "“Continuous administration of adenosine to reduce pulmonary vascular resistance” (priority 1990, dated 1992)", "key": {"[1]": {"assay": "Purine levels in arterial plasma before, during and after adenosine-induced controlled hypotension (HPLC)", "conditions": "for concentration: Table I, mean ± SEM", "procedure": "(§1) Blood gases were measured with appropriate electrodes for pH, PCO2, and PO2 (Radiometer, Copenhagen). The hemoglobin concentration was determined spectrophotometrically. Samples for the determination of adenosine and its metabolites were collected as described by Sollevi et al., Acta Physiol. Scand., 120: 171-76 (1984). Adenosine and inosine were purified and analyzed by HPLC as described by Fredholm and Sollevi., J. Physiol. (London), 313: 351-67 (1981). Hypoxanthine, xanthine, and uric acid were analyzed by HPLC according to the method of Schweinsberg and Loo., J. Chromatogr., 181: 103-7 (1980). Arterial levels of dipyridamole were determined by HPLC. J. Chromatogr., 162: 98-103 (1979). Blood lactate was measured according to Tfelt-Hansen and Siggard-Andersen. Scand. Clin. Lab. Invest., 27:15-19 (1971).\n(§2) Measurements and blood samplings were performed immediately before hypotension, as late as possible during hypotension (1-5 min before terminating the infusion) and approximately 30 min after the hypotensive period.\n(§3) Dipyridamole (5 mg. per ml) was infused iv (0.3-0.4 mg. per kg. over a period of 5-10 min) approximately 20 minutes prior to the induction of controlled hypotension. […] (See Pedersen, J. Chromatogr., 162: 98-103 (1979).\n(§4) The infusion was started at a rate of 0.01 mg. per kg. per minute, which was doubled at 15 second intervals until the desired MABP level of 40-50 mmHg was reached. […] Serum creatinine was determined before and on two consecutive days after operation. The standard ECG was recorded the day before and the day after operation.\n(§5) The statistical significance (control 1 vs. adenosine and control 1 vs. control 2) was determined by Student's t test for paired data. A P value of <0.05 was regarded as significant.\nThe purine levels of nine of the patients were determined prior to, during and after adenosine-induced controlled hypotension."}, "cardiovascular system": {"test_system": "cardiovascular system", "conditions": "cited from earlier work"}, "myocardial blood flow": {"test_system": "myocardial blood flow", "conditions": "investigated in abdominal vascular surgery; words; cited from earlier work"}, "[2]": {"assay": "Plasma adenosine and metabolite concentrations during cardiopulmonary bypass (HPLC)", "conditions": "for concentration: read-out: Venous concentration, 20 min", "procedure": "In six cases the plasma adenosine levels were determined by high performance liquid chromatography (HPLC) (Fredholm and Sollevi, J. Physiol. (London), 313: 351-67 (1981) in arterial and in venous (venous lines to the oxygenator) blood. The adenosine metabolites inosine, hypoxanthine and uric acid were also determined by HPLC. The samples were collected as previously described (Sollevi, Acta. Physiol. Scand., 121: 165-72 (1984) at the intervals of 10, 20, 40 and 80 minutes during CPB and 20 minutes after CPB.\nStatistical significance (controls v. adenosine group) was determinted with Student's t-test for unpaired data. For significance within the groups the Wilcoxon Rank Sum test was used. p […] 0.05 was regarded as significant."}, "[3]": {"test_system": "mean arterial blood pressure", "conditions": "dipyridamole 1 mg/kg, dogs; cited from earlier work"}, "[4]": {"test_system": "systemic arterial blood pressure and central hemodynamics", "assay": "Controlled hypotension during anesthesia: central hemodynamics (dipyridamole-pretreated cerebral aneurysm surgery patients)", "conditions": "in five of the patients", "procedure": "One hour before the operation the patients were premedicated orally with diazepam (10-20 mg.) Atropine (0.5 mg) and droperidol (0.1 mg. per kg.) were given intravenously before induction of anesthesia. Induction was started with thiopental (5 mg. per kg) followed by phenoperidine (1-2 mg), a synthetic opiate with pharmacodymanics resembling fentanyl but with a longer duration of action and 1/10 of its analgesic potency.\nPancuronium bromide (0.1 mg per kg) was given to facilitate endotracheal intubation. Anesthesia was maintained by supplementary doses of phenoperidine and droperidol, as required. […] Phenoperidine was supplemented regularly to prevent the blood pressure from exceeding the preanesthetic level (approx. 1 mg/30-60 min). Controlled hyperventilation was employed with a humidified gas mixture of 60% N2 O in oxygen to maintain PaCO2 values at approximately 30 mmHg (±1.5/SEM). Mannitol (1-1.5 g. per kg) was given routinely at the start of the operation (e.g., 1-2 hours prior to the controlled hypotension). The patients were operated on in the horizontal supine position.\nA 1.2-mm plastic cannula was introduced into the left radial artery to monitor systemic arterial blood pressure (MABP) and collect arterial blood. A balloon-tipped, flow-directed, quadruple lumen Swan-Ganz catheter (Model 93A-831-7.5 F, VIP) was inserted percutaneously via the left basilic vein, and its correct position in the pulmonary artery was determined by pressure tracings. The catheter was used for the monitoring of mean right atrial pressure (RAP), mean pulmonary artery pressure (PAP), and mean pulmonary capillary wedge pressure (PCWP) for the determination of cardiac output and collection of mixed venous blood and for the infusion of adenosine. Another plastic cannula was introduced percutaneously, in a retrograde direction, into the right jugular bulb for the collection of blood. The correct position was verified by x-ray.\nThe ECG was monitored with a standard chest (V5) lead. Heart rate was determined from the R-R interval. Blood pressures were measured by transducers placed at the midthoracic level. Cardiac output (QT) was determined in triplicate according to the thermodilution technique with a cardiac output computer (Edwards Lab, model 9510). Isotonic glucose, 10 ml at 1° C., was used as a thermal indicator. The ECG, heart rate, blood pressures, and thermodilution curves were recorded on a Grass® polygraph.\nas §2, §3, §4\nSystemic vascular resistance (SVR) was derived from the formula [formula] and pulmonary vascular resistance (PVR) from the formula [formula]\nas §5"}, "heart muscle": {"test_system": "heart muscle", "conditions": "injection; cited from earlier work"}, "[5]": {"test_system": "adenosine uptake by red blood cells", "conditions": "cited from earlier work"}, "[6]": {"assay": "Plasma level of dipyridamole (HPLC)", "format": "in vivo, human", "conditions": "0.3-0.4 mg/kg iv over 5-10 min; SEM; read-out: dipyridamole plasma level during hypotensive periods", "procedure": "as §1, §3"}, "[7]": {"conditions": "during / after adenosine infusion, in words"}, "[8]": {"conditions": "read-out: Purine level in arterial plasma, after hypotension, 20-40 min, 20-40 min after hypotension"}, "[9]": {"conditions": "read-out: Purine level in arterial plasma, during hypotension, during i.v. adenosine infusion, dipyridamole-pretreated"}, "[10]": {"conditions": "CPB 10', adenosine infusion 0.1 mg/kg/min, n = 6"}, "[11]": {"conditions": "CPB 20', adenosine infusion 0.1 mg/kg/min, n = 6"}, "[12]": {"conditions": "CPB 40', adenosine infusion 0.1 mg/kg/min, n = 6"}, "[13]": {"conditions": "CPB 80', adenosine infusion 0.1 mg/kg/min, n = 6"}, "[14]": {"conditions": "human, venous plasma, iv, 0.1 mg/kg/min, Venous concentration"}}, "note": "Entries after “also recorded” stand apart in the source; their conditions may differ. Read-outs that look alike come from different tables or passages of the source."}
{"smiles": "O=c1[nH]c(=O)c2[nH]cnc2[nH]1", "note": "[Xanthine, xanthine]", "values": [{"measurement": "change of adenosine metabolite levels", "setting": "[1]; in vivo", "result": "unaffected"}]}
{"smiles": "NNc1nncc2ccccc12", "note": "[hydralazine]", "values": [{"measurement": "heart rate", "setting": "cardiovascular system; in vivo", "result": "increase heart rate"}]}
{"smiles": "COc1cc2nc(N3CCN(C(=O)c4ccco4)CC3)nc(N)c2cc1OC", "note": "[prazosin]", "values": [{"measurement": "heart rate", "setting": "cardiovascular system; in vivo", "result": "increase heart rate"}, {"measurement": "onset and predictability of action", "setting": "cardiovascular system; in vivo", "result": "slow onset and unpredictable action"}]}
{"smiles": "FC(F)OC(Cl)C(F)(F)F", "note": "(stereo not drawn) [isoflurane]", "values": [{"measurement": "coronary flow / coronary blood flow", "setting": "myocardial blood flow", "result": "no beneficial effect; also recorded: may reduce coronary blood flow"}, {"measurement": "cardiac blood flow", "setting": "cardiovascular system; in vivo", "result": "tendency to reduce cardiac blood flow"}]}
{"smiles": "O=c1[nH]c(=O)c2[nH]c(=O)[nH]c2[nH]1", "note": "[Uric Acid, uric acid]", "values": [{"measurement": "change of adenosine metabolite levels", "setting": "[1]; [7]", "result": "unaffected"}, {"measurement": "concentration", "setting": "[1]; [8]", "result": "200 ± 28.8", "unit": "µM"}, {"measurement": "concentration", "setting": "[1]; [9]", "result": "198 ± 22.7", "unit": "µM"}, {"measurement": "Arterial concentration", "setting": "[2]; 20' post CPB, n = 6", "result": "260 ± 34", "unit": "µM"}, {"measurement": "Arterial concentration", "setting": "[2]; [10]", "result": "260 ± 32", "unit": "µM"}, {"measurement": "Arterial concentration", "setting": "[2]; [11]", "result": "269 ± 35", "unit": "µM"}, {"measurement": "Arterial concentration", "setting": "[2]; [12]", "result": "250 ± 32", "unit": "µM"}, {"measurement": "Arterial concentration", "setting": "[2]; [13]", "result": "249 ± 30", "unit": "µM"}]}
{"smiles": "OC[C@H]1O[C@@H](n2cnc3c(O)ncnc32)[C@H](O)[C@@H]1O", "note": "[Inosine, inosine]", "values": [{"measurement": "change of adenosine metabolite levels", "setting": "[1]; [7]", "result": "remained slightly above basal levels 20-40 minutes after the infusion"}, {"measurement": "change of adenosine metabolite levels", "setting": "[1]; during / after adenosine infusion, in words, listed as inosine", "result": "increased during the infusion"}, {"measurement": "concentration", "setting": "[1]; read-out: Purine level in arterial plasma, after hypotension, 3-9 min, 3-9 min after hypotension", "result": "0.69 ± 0.26", "unit": "µM"}, {"measurement": "concentration", "setting": "[1]; [8]", "result": "0.29 ± 0.15", "unit": "µM"}, {"measurement": "concentration", "setting": "[1]; [9]", "result": "3.01 ± 1.48", "unit": "µM"}, {"measurement": "Arterial concentration", "setting": "[2]; 20' post CPB, n = 6", "result": "0.4 ± 0.1", "unit": "µM"}, {"measurement": "Arterial concentration", "setting": "[2]; [10]", "result": "1.3 ± 0.7", "unit": "µM"}, {"measurement": "Arterial concentration", "setting": "[2]; [11]", "result": "2.5 ± 1.0", "unit": "µM"}, {"measurement": "Arterial concentration", "setting": "[2]; [12]", "result": "1.2 ± 0.3", "unit": "µM"}, {"measurement": "Arterial concentration", "setting": "[2]; [13]", "result": "1.4 ± 0.4", "unit": "µM"}, {"measurement": "concentration at 10 min", "setting": "[2]; [14]", "result": "900 ± 300", "unit": "nM"}, {"measurement": "concentration at 40 min", "setting": "[2]; [14]", "result": "1600 ± 500", "unit": "nM"}, {"measurement": "concentration at 80 min", "setting": "[2]; [14]", "result": "1600 ± 400", "unit": "nM"}, {"measurement": "metabolite elevation during infusion", "setting": "[2]; in vivo", "result": "consistently elevated"}, {"measurement": "concentration", "setting": "[2]; 20' post CPB, n = 6", "result": "400 ± 100", "unit": "nM"}, {"measurement": "concentration", "setting": "[2]; [11]", "result": "2400 ± 1200", "unit": "nM"}]}
{"smiles": "OCCN(CCO)c1nc(N2CCCCC2)c2nc(N(CCO)CCO)nc(N3CCCCC3)c2n1", "note": "[dipyridamole]", "values": [{"measurement": "reduction of mean arterial blood pressure by dipyridamole", "setting": "[3]", "result": 20, "unit": "%"}, {"measurement": "decrease of MABP by dipyridamole infusion", "setting": "[4]", "result": "approximately 10 mmHg"}, {"measurement": "redistribution of flow within heart muscle", "setting": "heart muscle", "result": "augment the redistribution of flow within the heart muscle"}, {"measurement": "adenosine uptake inhibition", "setting": "[5]", "result": "inhibiting cellular uptake of adenosine"}, {"measurement": "adenosine uptake inhibition", "setting": "[5]; listed as Dipryridamol", "result": "adenosine uptake inhibitor"}, {"measurement": "concentration", "setting": "[6]", "result": "1200 ± 300", "unit": "nM"}]}
{"smiles": "O=c1[nH]cnc2nc[nH]c12", "note": "[Hypoxanthine, hypoxanthine]", "values": [{"measurement": "change of adenosine metabolite levels", "setting": "[1]; in vivo", "result": "increased during the infusion"}, {"measurement": "Arterial concentration", "setting": "[2]; in vivo", "result": "4.2 ± 0.9", "unit": "µM"}]}
{"smiles": "CCCCC[C@H](O)/C=C/[C@@H]1[C@H]2C/C(=C/CCCC(=O)O)O[C@H]2C[C@H]1O", "note": "[prostacyclin]", "values": [{"measurement": "systemic vasodilation and hypotension", "setting": "cardiovascular system; coronary bypass surgery", "result": "severe systemic vasodilation and hypotension"}]}
